Experimental data as given in publication PMC12751012, “Nanoscale Direct-to-Biology Optimization and Structural Insights into Selective S. aureus TrmD Inhibitors” (Journal of Medicinal Chemistry, 2025).
Several values for one entry are separate records, joined by “and”; a condition that tells them apart may be missing. Identical values can stand only once. Counter-ions that a name gives are not always drawn.

What was measured:
Format in all cases: binding
S. aureus TrmD [1] = target: T1, S. aureus TrmD (Staphylococcus aureus, UniProt Q2FZ43); experiment: Isothermal titration calorimetry (ITC) on recombinant S. aureus TrmD
T1 construct: made in house; host or cells: E. coli BL21
T1 sequence (Q2FZ43 1-245): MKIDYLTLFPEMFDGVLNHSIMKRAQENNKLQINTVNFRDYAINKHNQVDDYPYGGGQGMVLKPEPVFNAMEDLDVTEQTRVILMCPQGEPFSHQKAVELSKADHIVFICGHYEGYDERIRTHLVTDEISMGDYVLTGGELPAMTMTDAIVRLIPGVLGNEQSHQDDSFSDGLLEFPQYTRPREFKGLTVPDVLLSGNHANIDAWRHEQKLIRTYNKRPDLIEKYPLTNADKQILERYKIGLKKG
Experimental: (§1) Experiments were conducted in the S. aureus TrmD SEC buffer (40 mM Tris, pH 7.5, 100 mM NaCl, 10 mM MgCl2, 5% glycerol) for the S. aureus enzyme. The H. influenzae enzyme was buffer exchanged into its ITC buffer (50 mM HEPES, pH 7.5; 500 mM NaCl; 5% glycerol) using Amicon Ultra-15 centrifugal filter units (Merck) prior to use. Compound 1 (BLD Pharmatech) and compound 2 were dissolved in DMSO to a final concentration of 20.0 and 11.6 mM, respectively, and diluted in ITC buffer to give ligand solutions at 1 and 0.58 mM, respectively. Due to a low enthalpy signal, a low c-value titration was performed for compound 1. In this type of experiment, the ligand is typically added at high concentration and in large excess relative to its binding partner, driving more binding events per injection. This causes the equivalence point to be reached after only a few injections and leads to the loss of the characteristic sigmoidal binding curve. TrmD was diluted to a final concentration of 50 μM, and DMSO was added to a final concentration of 5% to match the buffers. ITC measurements were performed using a MicroCal PEAQ-ITC Automated workstation (Malvern Panalytical) equipped with a 200 μL Hastelloy cell and a 40 μL injection syringe. […] Data were analyzed and fitted using the MicroCal PEAQ-ITC Analysis Software 1.21 and plotted in GraphPad Prism 8.0.1.

S. aureus TrmD [2] = target: T1, S. aureus TrmD; experiment: Fluorescence polarization (FP) assay, tracer 4, S. aureus TrmD
Experimental: To enable the screening of hundreds of nanomole-scale synthesized compounds, the implementation of a high-throughput-capable RNA methyltransferase (MTase) assay is considered fundamental. […] In this assay format, a fluorescent, SAM-pocket binding tracer can be displaced by the compound under investigation, and the resulting change in fluorescence polarization defines the read-out of the inhibitor compound’s affinity (Figure A).
(§2) Fluorescence polarization (FP) assays were performed as follows. The assays for H. influenzae TrmD have been described previously. All assays were conducted in technical triplicate using black 96-well half area plates. For the FP assays, a tracer (20 nM Cy5TPD for E. coli and H. influenzae TrmD, 10 nM tracer 4 for S. aureus TrmD) was mixed with the respective enzyme (2 μM E. coli TrmD, 2 μM H. influenzae TrmD, 500 nM S. aureus TrmD) in buffer (E. coli and H. influenzae TrmD: 50 mM HEPES, 500 mM NaCl, 5% Glycerol, pH 7.5, S. aureus TrmD: 40 mM Tris HCl, 100 mM NaCl, 10 mM MgCl2, 5% Glycerol, pH 7.5). The compounds were added in varying concentrations for K D-value determination. […] The Z-factor for tracer 4 was determined by measuring 48 replicates of the free tracer (positive controls, PC) and 48 replicates of a mixture of enzyme and tracer (negative controls, NC). The Z-factor is defined in terms of the means (μ) and standard deviations (σ) of the positive and negative controls and calculated as Z = 1–(3*(σnc + σpc)/(μnc–μpc)). […] Polarization values (mP) were determined from polarization-specific parallel and orthogonal fluorescence intensities. K D-values were calculated in GraphPad Prism 8.0.1 using the four-parameter Hill equation: y(% tracer bound) = bottom + ([ligand]-slope) × (top–bottom)/([ligand]-slope + K Dslope).

H. influenzae TrmD [3] = target: T2, H. influenzae TrmD (Haemophilus influenzae, UniProt P43912); experiment: Isothermal titration calorimetry (ITC) on H. influenzae TrmD
T2 construct: host or cells: E. coli BL21
Experimental: as §1

S. aureus TrmD [4] = target: T1, S. aureus TrmD; experiment: Fluorescence polarization (FP) assay, tracer 4, S. aureus TrmD; details: enzyme concentration varied, read-out: KD of fluorescent tracer, S. aureus TrmD (FP)
H. influenzae TrmD [5] = target: T2, H. influenzae TrmD; experiment: Fluorescence polarization (FP) assay, tracer 3 (Cy5TPD), H. influenzae TrmD; details: tracer, enzyme concentration varied; read-out: KD of fluorescent tracer, H. influenzae TrmD (FP)
Experimental: as §2

S. aureus TrmD [6] = target: T1, S. aureus TrmD; experiment: nanoSAR direct-to-biology FP displacement screening of crude triazoles; details: crude triazole at 1 μM, assuming full conversion; 500 nM TrmD, 10 nM tracer 4; read-out: % displaced tracer
Procedure, shortened: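 Crude CuAAC triazoles from alkyne 7 and 320 diverse azides were screened by FP displacement of 10 nM tracer 4 from 500 nM S. aureus TrmD. Buffer was 40 mM Tris HCl, 100 mM NaCl, 10 mM MgCl2, 5% glycerol, pH 7.5.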

[7] = KD S. aureus TrmD (FP displacement assay), apparent affinity, purified compound, 500 nM TrmD, 10 nM tracer 4
[8] = apparent affinity, purified compound, 500 nM TrmD, 10 nM tracer 4, read-out: KD S. aureus TrmD (FP displacement assay)

T2 sequence (P43912 whole entry): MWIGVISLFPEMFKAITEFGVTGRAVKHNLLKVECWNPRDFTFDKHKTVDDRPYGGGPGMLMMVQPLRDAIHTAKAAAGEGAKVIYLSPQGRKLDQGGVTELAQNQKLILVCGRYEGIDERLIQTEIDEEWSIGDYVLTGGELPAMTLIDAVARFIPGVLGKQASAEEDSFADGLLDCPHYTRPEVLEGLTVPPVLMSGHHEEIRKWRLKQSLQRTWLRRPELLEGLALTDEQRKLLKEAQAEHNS

Structure (SMILES) | inhibition at 1 µM (S. aureus TrmD [6]) | further results
Oc1ncnc2scc(-c3ccccc3)c12 [Compound 1, O=C1NC=NC2=C1C(C3=CC=CC=C3)=CS2] |  | Kd (S. aureus TrmD [1]): 19.8 µM; Kd (S. aureus TrmD [2]; [7]): 28.6 µM; Kd (H. influenzae TrmD [3]): 24.3 ± 6.16 µM
NCc1ccc(CNC(=O)c2csc3nc[nH]c(=O)c23)cc1 [Compound 2, N-(4-(Aminomethyl)benzyl)-4-oxo-3,4-dihydrothieno[2,3-d]pyrimidine-5-carboxamide] |  | Kd (S. aureus TrmD [1]): 12.9 µM; Kd (S. aureus TrmD [2]; [7]): 13.8 µM; Kd (H. influenzae TrmD [3]): 4.55 ± 0.31 µM
CN1/C(=C/C=C/C=C/C2=[N+](CCCCCC(=O)NCCCn3cc(-c4c[nH]c5nc[nH]c(=O)c45)nn3)c3ccccc3C2(C)C)C(C)(C)c2ccccc21 [Compound 4, 3,3-Dimethyl-1-(6-oxo-6-((3-(4-(4-oxo-4,7-dihydro-3H-pyrrolo[2,3-d]pyrimidin-5-yl)-1H-1,2,3-triazol-1-yl)propyl)amino)hexyl)-2-((1E,3E)-5-((E)-1,3,3-trimethylindolin-2-ylidene)penta-1,3-dien-1-yl)-3H-indol-1-ium trifluoroacetate] |  | Kd (S. aureus TrmD [4]): 0.659 µM and 0.66 µM
CC(=O)NCCCn1cc(-c2c[nH]c3nc[nH]c(=O)c23)nn1 [Compound 8a, N-(3-(4-(4-Oxo-4,7-dihydro-3H-pyrrolo[2,3-d]pyrimidin-5-yl)-1H-1,2,3-triazol-1-yl)propyl)acetamide] |  | Kd (S. aureus TrmD [2]; [8]): 10.4 ± 1.8 µM; Kd (S. aureus TrmD [2]; crude nanomole-scale reaction mixture, read-out: KD(in situ) S. aureus TrmD (FP displacement assay)): 4.98 µM
C#Cc1c[nH]c2nc[nH]c(=O)c12 [Compound 7, 5-Ethynyl-3,7-dihydro-4H-pyrrolo[2,3-d]pyrimidin-4-one] |  | Kd (S. aureus TrmD [2]; [8]): > 100 µM
CN1/C(=C/C=C/C=C/C2=[N+](CCCCCC(=O)NCCCn3cc(CNC(=O)c4csc5nc[nH]c(=O)c45)nn3)c3ccccc3C2(C)C)C(C)(C)c2ccccc21 [Compound 3, reference compound] |  | Kd (S. aureus TrmD [4]): 23.3 µM; Kd (H. influenzae TrmD [5]): 2 µM and 2.02 µM
O=c1[nH]cnc2[nH]cc(-c3cn(C[C@@H]4CCCCC4(F)F)nn3)c12 [Compound 04H03, F[C@@]1(F)[C@H](CN2N=NC(C=3C=4C(=O)NC=NC4NC3)=C2)CCCC1] | 78% | 
O=c1[nH]cnc2[nH]cc(-c3cn(-c4ccncc4)nn3)c12 [Compound 02C12, O=C1NC=NC=2NC=C(C=3N=NN(c4ccncc4)C3)C12] | 18% | 
O=c1[nH]cnc2[nH]cc(-c3cn(CC(F)(F)F)nn3)c12 [Compound 03A11, FC(F)(F)CN1N=NC(C=2C=3C(=O)NC=NC3NC2)=C1] | 14% | 
C[C@H](c1ccccc1Cl)n1cc(-c2c[nH]c3nc[nH]c(=O)c23)nn1 [Compound 02H09, Clc1c(cccc1)[C@H](N2N=NC(C=3C=4C(=O)NC=NC4NC3)=C2)C] | 44% | 
O=c1[nH]cnc2[nH]cc(-c3cn(CCn4cccn4)nn3)c12 [Compound 01D09, O=C1NC=NC=2NC=C(C=3N=NN(C3)CCN4N=CC=C4)C12] | 39% | 
O=c1[nH]cnc2[nH]cc(-c3cn(CCN4CCOCC4)nn3)c12 [Compound 01E07, O=C1NC=NC=2NC=C(C=3N=NN(C3)CC[NH+]4CCOCC4)C12] | 34% | 
O=c1[nH]cnc2[nH]cc(-c3cn([C@H]4COCC[C@@H]4O)nn3)c12 [Compound 02C08, O=C1NC=NC=2NC=C(C=3N=NN(C3)[C@@H]4[C@@H](O)CCOC4)C12] | 49% | 
N[C@H]1CC[C@H](n2cc(-c3c[nH]c4nc[nH]c(=O)c34)nn2)CC1 [Compound 02D09, O=C1NC=NC=2NC=C(C=3N=NN(C3)[C@@H]4CC[C@@H]([NH3+])CC4)C12] | 21% | 
C[C@@H](Cn1cc(-c2c[nH]c3nc[nH]c(=O)c23)nn1)c1ccccn1 [Compound 03C10, O=C1NC=NC=2NC=C(C=3N=NN(C3)C[C@@H](c4ncccc4)C)C12] | 63% | 
Cc1ccccc1-n1cc(-c2c[nH]c3nc[nH]c(=O)c23)nn1 [Compound 01D08, O=C1NC=NC=2NC=C(C=3N=NN(c4c(cccc4)C)C3)C12] | 9% | 
CC(C)(CN)Cn1cc(-c2c[nH]c3nc[nH]c(=O)c23)nn1 [Compound 02E01, O=C1NC=NC=2NC=C(C=3N=NN(C3)CC(C[NH3+])(C)C)C12] | 54% | 
O=c1[nH]cnc2[nH]cc(-c3cn(CCO)nn3)c12 [Compound 04B04, O=C1NC=NC=2NC=C(C=3N=NN(C3)CCO)C12] | 63% | 
C[C@@H]1C[C@H](n2cc(-c3c[nH]c4nc[nH]c(=O)c34)nn2)c2ccsc2S1(=O)=O [Compound 03D02, S1(=O)(=O)C=2SC=CC2[C@@H](N3N=NC(C=4C=5C(=O)NC=NC5NC4)=C3)C[C@H]1C] | 27% | 
Cc1csc(C[C@H](C)n2cc(-c3c[nH]c4nc[nH]c(=O)c34)nn2)n1 [Compound 01E11, S1C(=NC(=C1)C)C[C@@H](N2N=NC(C=3C=4C(=O)NC=NC4NC3)=C2)C] | 31% | 
O=c1[nH]cnc2[nH]cc(-c3cn(CCP(=O)(O)O)nn3)c12 [Compound 03C01, P([O-])([O-])(=O)CCN1N=NC(C=2C=3C(=O)NC=NC3NC2)=C1] | 28% | 
